Our source for the refractive index values is the NIST ThermoML archive (doi:10.1021/acs.jced.6b00686).

SMILES strings stand for the structures. Numbers after ± are expanded uncertainties.

The series can be described thus: refractive index (Na D-line) (dimensionless). Particulars: 293.15 K; 101.3 kPa; Liquid; Standard Abbe refractometry.
For the compound `O=C(O)CS` [2-mercaptoacetic acid], the refractive index stood at 1.5027 ± 0.0005.
For `CC(=O)OCC(C)C` [2-methylpropyl ethanoate] the value was 1.3905 ± 0.0005; for `CCCCOC(C)=O` [butyl ethanoate], 1.394 ± 0.0005.
On to `CCCCOC=O` [butyl methanoate], for which the refractive index is listed as 1.3887 ± 0.0005.
For `O` [water] the value was 1.3327 ± 0.0005.

By refractive index is commonly meant a measure of how strongly the sample bends light.
